Assay results from ChEMBL document CHEMBL1201862, “PubChem BioAssay data set” (2004).
Calls of active or inactive are those of the source.

How the values were obtained:
[1] = target: NAD-dependent protein deacylase sirtuin-5, mitochondrial (Homo sapiens, UniProt Q9NXA8); test: SIRT5 desuccinylase inhibitors, dose response, biochemical, fluorescence imaging, cherry-pick, set 5 (AID 720591);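 further: desuccinylation of succinyl peptide AMC substrate read as fluorescence after trypsin release; potency of inhibitors that lower fluorescence and may act on trypsin instead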
[2] = target: 5-hydroxytryptamine receptor 2A (Mus musculus, UniProt P35363); format: functional, cell-based;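 further: CHO-K1 cells with tagged receptor and beta-arrestin; agonist potency measured as compound-induced activation of the receptor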
Mu-type opioid receptor = Mu-type opioid receptor (Homo sapiens, UniProt P35372); format: functional, cell-based;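 further: U2OS cells with beta-arrestin recruitment to OPRM1 by beta-gal complementation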
[3] = inhibitors of HIV Env-driven cell fusion, dose response, cherry-pick (AID 652057); format: functional, cell-based
Streptokinase A = target: T1, Streptokinase A (Streptococcus pyogenes serotype M1, UniProt P10520); test: S. pyogenes streptokinase expression inhibitors, potency, dose response, plasminogen activation absorbance, OD405 (AID 1914); format: functional, Streptococcus pyogenes M1 GAS;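 further: secreted streptokinase activity via plasminogen activation per viability signal from cell pellet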
T1 sequence (P10520 whole entry): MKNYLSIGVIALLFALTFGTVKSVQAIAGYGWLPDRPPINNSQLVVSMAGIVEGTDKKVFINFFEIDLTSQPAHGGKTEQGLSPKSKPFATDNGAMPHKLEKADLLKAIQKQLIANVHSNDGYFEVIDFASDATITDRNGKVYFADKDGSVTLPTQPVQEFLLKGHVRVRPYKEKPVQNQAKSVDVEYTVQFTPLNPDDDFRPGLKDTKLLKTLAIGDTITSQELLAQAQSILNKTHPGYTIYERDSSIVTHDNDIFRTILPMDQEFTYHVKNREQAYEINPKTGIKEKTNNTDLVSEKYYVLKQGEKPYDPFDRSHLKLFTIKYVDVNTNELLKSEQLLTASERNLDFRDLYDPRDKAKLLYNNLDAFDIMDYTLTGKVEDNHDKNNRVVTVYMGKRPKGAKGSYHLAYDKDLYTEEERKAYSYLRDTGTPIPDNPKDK

[4] = test system: Streptococcus sp. 'group A'; test: growth inhibition of control SK(-) GAS strain, dose response, counter-screen for streptokinase expression inhibitor project, luminescence, kanamycin, BacTiterGlo, confirmation (AID 1900); format: functional, organism-based
[5] = CEM21 lymphoblast cell cytotoxicity, dose response, cytotoxicity control for viral fusion inhibitor project, CellTiter-Glo luminescence, cherry-picked (AID 652042); format: functional, cell-based;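 further: potency for signal decrease meaning cytotoxicity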
Streptococcus = test: Group A Streptococcus viability loss, dose response, counter-screen for streptokinase expression inhibitor project, luminescence, BacTiterGlo (AID 1915); format: functional, organism-based;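 further: potency for reduction of bacterial viability or growth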
[6] = off-target signal loss in HeLa-CEM21 co-culture – HeLa F-luc CTL cells, cherry-picked, counter-screen for HIV-1 Env fusion inhibitor project, dose response (AID 652040); format: functional, cell-based;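 further: potency for signal decrease marking cytotoxic or nonspecific inhibition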
[7] = target: T2, Long-chain-fatty-acid--AMP ligase FadD28 (Mycobacterium tuberculosis, UniProt P9WQ59); test: Fluorescence polarization aasay to screen for inhibitors that compete for the binding of FadD28 to a bisubstrate Measured in Biochemical System Using Plate Reader - 2147-01_Inhibitor_Dose_CherryPick_Activity.; format: functional, Mycobacterium tuberculosis H37Rv
T2 sequence (P9WQ59 whole entry): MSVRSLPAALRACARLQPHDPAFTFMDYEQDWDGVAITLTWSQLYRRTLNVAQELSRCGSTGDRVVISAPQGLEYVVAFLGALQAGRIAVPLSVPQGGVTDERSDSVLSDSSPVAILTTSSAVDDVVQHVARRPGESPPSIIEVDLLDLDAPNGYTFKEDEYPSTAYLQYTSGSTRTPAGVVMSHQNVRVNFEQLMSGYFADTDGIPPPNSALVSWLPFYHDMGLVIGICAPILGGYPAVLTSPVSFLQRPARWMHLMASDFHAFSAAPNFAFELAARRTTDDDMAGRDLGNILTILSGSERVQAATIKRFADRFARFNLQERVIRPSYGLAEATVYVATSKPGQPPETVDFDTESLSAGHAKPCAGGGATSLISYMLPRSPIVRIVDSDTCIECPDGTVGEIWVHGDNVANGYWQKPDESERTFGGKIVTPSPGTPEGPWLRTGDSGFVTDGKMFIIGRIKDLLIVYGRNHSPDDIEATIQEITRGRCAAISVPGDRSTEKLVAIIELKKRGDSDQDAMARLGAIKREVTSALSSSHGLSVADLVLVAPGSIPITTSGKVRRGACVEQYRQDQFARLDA

[8] = inhibitors of clade B AD8 Env fusion, dose response, cell-based, cherry-pick (AID 652062); format: functional;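 further: luciferase signal from cell-cell fusion driven by HIV-1 clade B AD8 Env; potency is for inhibitors of fusion seen as a drop in luminescence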
[9] = ZM109 Env clade C HIV-1 fusion inhibitors, dose response, HeLa effector, CEM target cells, luciferase, cherry-pick (AID 652058); format: functional, cell-based
[10] = microbe, parasite or virus in culture; format: functional; conditions: Mycobacterium tuberculosis

Chain of NAD-dependent protein deacylase sirtuin-5, mitochondrial (Q9NXA8 whole entry): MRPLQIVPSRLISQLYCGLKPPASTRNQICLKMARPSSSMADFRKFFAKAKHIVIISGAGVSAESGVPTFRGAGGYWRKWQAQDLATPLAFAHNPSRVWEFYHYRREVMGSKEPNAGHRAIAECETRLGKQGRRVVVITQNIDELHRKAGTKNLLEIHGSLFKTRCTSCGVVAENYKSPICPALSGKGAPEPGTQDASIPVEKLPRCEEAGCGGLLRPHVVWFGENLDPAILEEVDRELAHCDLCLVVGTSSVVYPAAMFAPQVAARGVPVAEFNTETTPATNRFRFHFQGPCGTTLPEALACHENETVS
Chain of Mu-type opioid receptor (P35372 whole entry, the tested form may be a part): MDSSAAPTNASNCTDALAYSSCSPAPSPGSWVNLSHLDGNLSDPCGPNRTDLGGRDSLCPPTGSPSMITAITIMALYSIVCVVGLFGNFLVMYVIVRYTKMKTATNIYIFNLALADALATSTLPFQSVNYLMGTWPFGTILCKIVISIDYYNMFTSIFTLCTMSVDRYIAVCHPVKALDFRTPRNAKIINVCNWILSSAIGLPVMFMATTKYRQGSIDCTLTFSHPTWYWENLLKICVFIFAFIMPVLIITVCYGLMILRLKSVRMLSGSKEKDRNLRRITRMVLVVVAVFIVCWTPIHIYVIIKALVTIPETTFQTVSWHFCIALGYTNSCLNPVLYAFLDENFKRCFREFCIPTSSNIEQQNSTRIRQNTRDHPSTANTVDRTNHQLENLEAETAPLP
Chain of 5-hydroxytryptamine receptor 2A (P35363 whole entry): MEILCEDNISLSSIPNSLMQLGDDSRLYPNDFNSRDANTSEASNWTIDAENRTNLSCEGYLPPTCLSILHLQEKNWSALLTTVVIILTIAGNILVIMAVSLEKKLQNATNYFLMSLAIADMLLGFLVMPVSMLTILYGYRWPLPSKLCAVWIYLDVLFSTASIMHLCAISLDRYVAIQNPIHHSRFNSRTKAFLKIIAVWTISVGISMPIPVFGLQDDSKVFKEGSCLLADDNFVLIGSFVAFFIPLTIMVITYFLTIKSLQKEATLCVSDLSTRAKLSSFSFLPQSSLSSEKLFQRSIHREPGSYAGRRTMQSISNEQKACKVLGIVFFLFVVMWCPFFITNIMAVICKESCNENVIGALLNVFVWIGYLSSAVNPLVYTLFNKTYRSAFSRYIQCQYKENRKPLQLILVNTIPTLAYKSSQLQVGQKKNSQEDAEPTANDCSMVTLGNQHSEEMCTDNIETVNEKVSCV

SMILES: COc1cccc(NC(=O)CN(C)CC(=O)Nc2ccc3c(c2)CCC3)c1
- AC50 [1]: > 30 µM (inactive)

SMILES: O=C(CN1CCN(c2ccccn2)CC1)Nc1cccc(S(=O)(=O)N2CCCC2)c1
- EC50 [2]: 9.85 µM (active)
- EC50 (Mu-type opioid receptor): 92.5 µM (inactive)

SMILES: OC(COCc1ccc(Cl)cc1)CN1CCN(c2ccccn2)CC1 (centres undefined)
- EC50 [2]: 0.819 µM (active)
- EC50 (Mu-type opioid receptor): 92.5 µM (inactive)

SMILES: Cc1ccc(C2Oc3ccccc3C3=C2C(c2cccs2)n2ncnc2N3)cc1 (centres undefined)
- AC50 [3]: 9.29 µM (active)
- EC50 (Streptokinase A): > 150 µM (not active)
- EC50 [4]: 2.7 µM (active)
- AC50 [5]: 31.7 µM (active)
- EC50 (Streptococcus): 7.1 µM (active)
- AC50 [6]: 14.1 µM (active)

SMILES: Brc1cccc(CN2CCN(c3ncccn3)CC2)c1
- EC50 [2]: 0.352 µM (active)
- EC50 (Mu-type opioid receptor): 92.5 µM (inactive)

SMILES: O=C(c1ccco1)N1CCN(Cc2ccc(Cl)cc2)CC1
- EC50 [2]: 4.08 µM (active)
- EC50 (Mu-type opioid receptor): 92.5 µM (inactive)

SMILES: COc1ccc(NC(=O)N[C@@H](CCSC)C(=O)O)cc1OC
- AC50 [1]: > 30 µM (inactive)

SMILES: Cc1ccc(C2CC(=O)N3CN(Cc4ccco4)CSC3=C2C#N)cc1 (centres undefined)
- AC50 [7]: 82.5 µM (active)

SMILES: Cc1[nH]c2ccc(OC(F)(F)F)cc2c1CCNCc1ccc(Cl)cc1
- AC50 [8]: 5.12 µM (active)
- AC50 [9]: 1.24 µM (active)
- AC50 [3]: 0.838 µM (active)
- CC50 [10]: 12.6 µM (active)
- AC50 [5]: 9.56 µM (active)
- AC50 [6]: 1.71 µM (active)

SMILES: O=C(Cn1c(=O)oc2ccccc21)Nc1cccc(Cl)c1
- AC50 [1]: > 30 µM (inactive)
